Data published in patent US20090087845A1, “Genetic Markers Of True Low Birth Weight” (priority 2005, published 2009).
“And” between values parts separate entries of the source, which are not always exact repeats. Equal entries are not always repeated.

Tested on: placental gene expression
Test: Placental gene expression (Affymetrix Rat Genome Chip 230.2) after SSRI (fluoxetine) exposure throughout gestation
Assay type: in vivo
Conditions: placenta, SSRI-exposed samples
Procedure: Gene expression data from pregnant rats under different forms of dietary restriction was gathered. […] (N=8) • Group 2 (CR50): Rats Given 50% of their Normal Daily Intake of Food. (N=5) • Group 3 (CR70): Rats Given 70% of their Normal Daily Intake of Food. […] (N=6) Placentas from the rats of each Group were harvested on Day 21 of gestation. RNA was extracted and gene expression was measured based on hybridization of RNA to Affymetrix Rat Genome Chips™ (230.2) (Affymetrix, Santa Clara, Calif.).
In order to determine whether placental gene expression profiling can be used to identify other prenatal exposures such as toxicants and drugs, a group of rats with drug exposure was monitored as described above. […] As with control, CR50, CR70, and HF groups, placentas from the mothers were sampled after 21 days of gestation and gene expression monitored utilizing an Affymetrix Rat Genome Chip.

SMILES: CNCCC(Oc1ccc(C(F)(F)F)cc1)c1ccccc1 (centres unmarked) [fluoxetine, Fluoxetine]
- expression, probeset 1368985_at: 4.725 and 4.454 and 4.646 and 4.715 and 4.588 and 4.472
- expression, probeset 1369005_at: 5.188 and 5.546 and 5.291 and 5.305 and 5.241 and 5.222
- expression, probeset 1369014_at: 4.757 and 5.004 and 4.708 and 4.543 and 4.616 and 4.993
- expression, probeset 1369051_at: 5.588 and 5.207 and 4.835 and 5.011 and 5.144 and 5.186
- expression, probeset 1369192_at: 5.561 and 5.364 and 5.202 and 5.355 and 5.327 and 5.66
- expression, probeset 1369754_a_at: 8.583 and 8.277 and 8.264 and 8.283 and 8.554 and 8.483
- expression, probeset 1369894_at: 3.616 and 3.758 and 3.897 and 3.839 and 4.008 and 3.982
- expression, probeset 1370115_at: 4.967 and 4.917 and 4.824 and 4.622 and 4.818 and 4.719
- expression, probeset 1370260_at: 7.313 and 7.599 and 7.249 and 7.038 and 7.707 and 6.879
- expression, probeset 1370521_at: 8.48 and 8.58 and 8.737 and 8.764 and 8.624 and 8.798
- expression, probeset 1370682_at: 5.579 and 5.507 and 5.51 and 5.944 and 5.574 and 5.843
- expression, probeset 1370688_at: 7.904 and 7.963 and 8.096 and 7.915 and 8.157 and 7.99
- expression, probeset 1370766_at: 4.633 and 4.679 and 4.503 and 4.578 and 4.207 and 4.398
- expression, probeset 1371435_at: 11.53 and 11.47 and 12.47 and 12.43 and 12.2189 and 12.12
- expression, probeset 1371813_at: 6.757 and 6.608 and 7.254 and 7.022 and 6.663 and 6.909
- expression, probeset 1372141_at: 9.643 and 9.597 and 10.34 and 10.39 and 9.957 and 10.19
- expression, probeset 1372462_at: 7.912 and 7.819 and 7.864 and 7.873 and 6.184 and 8.214
- expression, probeset 1372514_s_at: 8.136 and 8.21 and 8.071 and 8.128 and 7.741 and 8.134
- expression, probeset 1372593_at: 7.225 and 7.133 and 7.724 and 8.015 and 7.571 and 7.719
- expression, probeset 1373319_at: 9.595 and 9.441 and 10.05 and 10.11 and 10.07 and 9.901
- expression, probeset 1373396_at: 8.164 and 8.317 and 8.21 and 8.056 and 8.147 and 8.247
- expression, probeset 1373702_at: 7.559 and 7.846 and 7.181 and 7.332 and 7.377 and 7.496
- expression, probeset 1373804_at: 7.894 and 7.963 and 7.858 and 8.12 and 7.699 and 8.068
- expression, probeset 1373925_at: 6.195 and 6.159
- expression, probeset 1374112_at: 7.049 and 6.725 and 6.891 and 7.196 and 7.138 and 6.73
- expression, probeset 1374231_at: 8.494 and 8.998 and 8.117 and 8.316 and 7.948 and 8.466
- expression, probeset 1374656_at: 8.729 and 9.034 and 8.507 and 8.743 and 9.004 and 8.9546
- expression, probeset 1374739_at: 8.348 and 8.65 and 7.424 and 7.76 and 7.662 and 7.815
- expression, probeset 1374807_at: 6.505 and 6.904 and 6.697 and 6.907 and 6.749 and 6.775
- expression, probeset 1375407_at: 4.487 and 4.33 and 4.344 and 4.489 and 4.605 and 4.326
- expression, probeset 1375738_at: 4.993 (2×) and 4.843 and 5.388 and 5.322 and 5.141
- expression, probeset 1376136_at: 5.074 and 4.867 and 4.557 and 4.873 and 4.805 and 4.931
- expression, probeset 1376218_a_at: 4.961 and 5.16 and 4.667 and 4.873 and 4.562 and 4.552
- expression, probeset 1376278_at: 6.191 and 6.405 and 5.934 and 6.175 and 6.205 and 6.006
- expression, probeset 1376289_at: 3.746 and 3.75 and 3.659 and 3.772 and 3.71 and 3.697
- expression, probeset 1376294_at: 7.495 and 7.951 and 7.425 and 7.689 and 7.578 and 7.48
- expression, probeset 1376844_at: 3.958 and 3.92 and 4.036 and 4.211 and 4.082 and 4.214
- expression, probeset 1376852_at: 6.78 and 6.537 and 6.455 and 6.699 and 6.862 and 6.682
- expression, probeset 1377028_at: 5.528 and 5.846 and 5.206 and 5.427 and 5.578 and 5.375
- expression, probeset 1377123_at: 8.958 and 9.069 and 8.729 and 8.819 and 8.853 and 8.789
- expression, probeset 1377210_at: 5.83 and 5.617 and 6.032 and 5.854 and 6.198 and 5.93
- expression, probeset 1377414_at: 7.593
- expression, probeset 1377476_at: 3.935 and 3.899 and 3.84 and 3.865 and 3.998 and 4.107
- expression, probeset 1377621_at: 8.676 and 8.675 and 8.549 and 8.432 and 8.896 and 8.593
- expression, probeset 1377746_at: 6.432 and 6.591 and 6.425 and 6.509 and 6.484 and 6.597
- expression, probeset 1378275_at: 8.581 and 8.43 and 8.773 and 8.828 and 8.515 and 8.555
- expression, probeset 1378318_at: 7.572 and 7.8 and 8.112 and 7.987 and 7.864 and 8.147
- expression, probeset 1378355_a_at: 5.807 and 6.412 and 5.853 and 5.536 and 5.777 and 6.037
- expression, probeset 1378642_at: 6.331 and 6.197 and 6.546 and 6.861 and 6.598 and 6.634
- expression, probeset 1378705_at: 8.279 and 8.34 and 7.828 and 7.561 and 7.947 and 7.98
- expression, probeset 1378872_at: 4.782 and 4.711 and 4.621 and 4.863 and 4.867 and 4.775
- expression, probeset 1378992_at: 3.832 and 3.701 and 3.85 and 3.859 and 3.911 and 3.949
- expression, probeset 1379110_at: 3.965 and 4.036 and 3.739 and 3.917 and 3.886 and 3.804
- expression, probeset 1379140_at: 4.026 and 4.28 and 4.108 and 3.886 and 4.071 and 4.079
- expression, probeset 1379206_at: 6.486 and 6.611 and 6.213 and 6.405 and 6.472 and 6.395
- expression, probeset 1379235_x_at: 7.486 and 7.695 and 7.128 and 7.252 and 7.527 and 7.244
- expression, probeset 1379342_at: 6.297 and 6.3 and 6.275 and 6.188 and 6.259 and 6.187
- expression, probeset 1379408_at: 8.688 and 8.662 and 8.77 and 8.887 and 8.853 and 8.912
- expression, probeset 1379796_at: 5.201 and 4.92 and 5.205 and 5.072 and 5.171 and 5.031
- expression, probeset 1379827_at: 7.897 and 7.85 and 7.7663 and 7.925 and 7.632 and 7.663
- expression, probeset 1379963_at: 6.925 and 7.095 and 7.165 and 7.115 and 7.307 and 7.146
- expression, probeset 1379980_at: 7.864 and 7.817 and 8.195 and 8.083 and 7.784 and 8.003
- expression, probeset 1380152_at: 5.47 and 5.228 and 5.461 and 5.179 and 5.39 and 5.269
- expression, probeset 1380392_at: 6.093 and 5.622 and 5.425 and 5.398 and 5.781 and 5.646
- expression, probeset 1380454_at: 5.81 and 5.871 and 5.693 and 5.717 and 5.721 and 5.875
- expression, probeset 1381074_at: 4.343 and 4.301 and 4.059 and 4.183 and 4.17 and 4.086
- expression, probeset 1381122_at: 5.406 and 5.219 and 5.499 and 5.148 and 5.434 and 5.212
- expression, probeset 1381286_at: 5.261 and 5.374 and 5.297 and 5.034 and 5.316 and 5.389
- expression, probeset 1381483_at: 3.996 and 4.01 and 3.983 and 3.972 and 3.97 and 4.017
- expression, probeset 1381872_at: 6.498 and 7.027 and 7.042 and 6.737 and 6.911 and 6.996
- expression, probeset 1381874_at: 6.734 and 6.453 and 6.457 and 6.588 and 6.285 and 6.523
- expression, probeset 1381941_at: 8.218
- expression, probeset 1381950_at: 3.397 and 3.37 and 3.47 and 3.379 and 3.404
- expression, probeset 1381966_at: 8.36 and 8.855 and 8.774 and 8.518 and 8.76 and 8.757
- expression, probeset 1382015_at: 7.649 and 7.911 and 7.376 and 7.559 and 7.728 and 7.55
- expression, probeset 1382056_at: 8.204 and 7.693 and 8.302 and 8.683 and 9.183 and 8.357
- expression, probeset 1382110_at: 7.206 and 7.183 and 6.692 and 6.852 and 6.784 and 6.862
- expression, probeset 1382513_at: 6.939 and 6.904 and 6.918 and 6.844 and 6.991 and 6.992
- expression, probeset 1382608_at: 5.493 and 5.536 and 5.441 and 5.641 and 5.553 and 5.573
- expression, probeset 1382825_at: 6.303
- expression, probeset 1382932_at: 5.367 and 5.211 and 5.239 and 5.252 and 5.387 and 5.359
- expression, probeset 1383132_at: 5.887 and 6.391 and 5.865 and 5.893 and 5.977 and 5.951
- expression, probeset 1383300_at: 8.422 and 8.732 and 8.861 and 8.982 and 9.071 and 8.854
- expression, probeset 1383309_at: 7.874 and 8.135 and 8.529 and 8.112 and 8.518 and 7.955
- expression, probeset 1383376_at: 6.632 and 7.028 and 7.303 and 6.987 and 6.76 and 6.955
- expression, probeset 1383430_at: 6.213 and 5.851 and 6.754 and 6.641 and 6.446 and 6.508
- expression, probeset 1383443_at: 5.895 and 5.907 and 6.025 and 5.854 and 5.859 and 6.136
- expression, probeset 1383472_at: 3.955 and 3.951 and 3.984 and 4.033 and 3.887 and 3.899
- expression, probeset 1383659_a_at: 5.774 and 5.519 and 5.386 and 5.431 and 4.833 and 6.496
- expression, probeset 1383667_at: 8 and 8.041 and 8.381 and 8.126 and 8.244 and 8.175
- expression, probeset 1383670_at: 7.784 and 7.593 and 7.74 and 7.592 and 7.856 and 7.209
- expression, probeset 1383900_at: 4.742 and 4.617 and 4.606 and 4.705 and 4.749 and 4.765
- expression, probeset 1383984_at: 3.997 and 4.264 and 4.189 and 4.266 and 4.14 and 4.315
- expression, probeset 1384135_at: 7.574 and 7.593 and 7.557 and 7.727 and 7.711 and 7.722
- expression, probeset 1384195_at: 5.325 and 5.826 and 5.609 and 5.355 and 5.716 and 5.368
- expression, probeset 1384374_at: 6.358 and 6.643 and 6.365 and 5.887 and 6.421 and 6.362
- expression, probeset 1384377_at: 7.233 and 7.134 and 7.085 and 7.15 and 7.214 and 7.158
- expression, probeset 1384467_at: 8.34 and 8.507 and 8.418 and 8.058 and 8.062 and 8.234
